Blank lines part the entries; values can stand above or below the compound they belong to.
Assays:
[1] = Fluorescence of neovascularized corneal vessels after injection into the carotid artery (Example 4); type: in vivo, rabbit; details: injected into the carotid artery; fluorescein alone
Protocol: The water soluble complex described in Example 3 was injected into the carotid artery of rabbits who had neovascularization in the cornea induced by a pellet of endotoxin implanted one week earlier. After a single injection, the new vessels in the cornea were still flourescing green 3 hours later.
Similarly, when the cyclodextrin-fluorscein complex, dissolved in an aqueous solution of methylcellulose (0.45%), was applied to the rabbit cornea, Descemet's membrane in the cornea also glowed green more than 3 hours later when histological sections of the corneas were examined.

[2] = Fluorescence of Descemet's membrane in histological sections of corneas after application to the cornea (Example 4); type: in vivo, rabbit; details: fluorescein alone
[3] = intravenous injection; fluorescein alone; cited from earlier work
[4] = polymeric film; cited from earlier work
[5] = polyacrylamide and copolymer of acrylamide, N-vinylpyrrolidone and ethyl acrylate matrix; cited from earlier work
[6] = rabbit, in vivo
Protocol: A polyethylene ring was glued to the cornea in anesthesized rabbits. Saline containing 1 mg/ml of [S^35 ]-β-cyclodextrin tetradecasulfate was added to each well for up to 120 minutes, after which the wells were removed and the corneas vigorously rinsed with saline. The anterior chamber fluid (ACF) was then aspirated. The corneas were then exised and digested in collegenase and the corneal supernatunt counted.

[7] = rabbit, in vivo; remark: listed apart in the source
[8] = tested on: fibroblast growth factor (FGF); details: sulfated cyclodextrin column; Shing et al.; cited from earlier work

presence in Descemet's membrane [2]: not found in Descemet's membrane
Compound: O=C1OC2(c3ccc(O)cc3Oc3cc(O)ccc32)c2ccccc21 [fluorescein]
disappearance from the corneal vessels [1]: disappeared from the corneal vessels within a few minutes
time to clearance from the blood vessels [3]: less than one

Compound: CC[C@@H]1C(=O)OC[C@@H]1Cc1cncn1C [pilocarpine]
increase in ocular bioavailability of pilocarpine over aqueous solution [4]: two
increase in ocular bioavailability of pilocarpine [5]: three

time after removal of wells up to which label is detected in the ACF and in the corneas [6]: up to three
time course of penetration in both the corneas and ACF [6]: increased bearly with time
Compound: β-cyclodextrin tetradecasulfate
concentration in the aqueous humor relative to cornea [7]: parallels that in the cornea, but at lower levels
time course in the cornea [7]: rapid rise in the cornea of labelled β-cyclodextrin tetradecasulfate and then a gradual fall-off
affinity for FGF [8]: high affinity
